# Test results: the supplement of paper PMC4932681
# Key:
# BT-474 Tam1 [1] = experiment: drug sensitivity score (DSS) (DSS (dimensionless)); higher = more sensitive; extreme values may be limits of the assay; details: 4-OH-tamoxifen in medium 1 µM; 72 h
# Method in brief: (§1)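 CellTiter-Glo viability was the readout, taken on a PHERAstar and normalised to vehicle-only and positive controls. It was measured after breast cancer cell lines and their resistant derivatives spent 72 h at 37 °C in 384-well plates containing library drugs at five concentrations spanning a 10 000-fold range, with 1 μM of the selecting drug in the medium of resistant lines. From logistic dose–response fits in the Breeze pipeline came drug sensitivity score, relative IC50 (curve midpoint) and top-dose inhibition.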
# ZR-75-1 Tam1 [2] = experiment: as above; details: 4-OH-tamoxifen in medium 1 µM; 72 h
# Method in brief: as §1
# T-47D Tam2 [3] = experiment: as above; details: 4-OH-tamoxifen in medium 1 µM; 72 h
# Method in brief: as §1
# BT-474 Tam2 [4] = experiment: as above; details: 4-OH-tamoxifen in medium 1 µM; 72 h
# Method in brief: as §1
# ZR-75-1 [5] = experiment: as above; details: 72 h
# Method in brief: as §1
# BT-474 [6] = experiment: as above; details: 72 h
# Method in brief: as §1
# ZR-75-1 Tam2 [7] = experiment: as above; details: 4-OH-tamoxifen in medium 1 µM; 72 h
# Method in brief: as §1
# T-47D Tam1 [8] = experiment: as above; details: 4-OH-tamoxifen in medium 1 µM; 72 h
# Method in brief: as §1
# T-47D [9] = experiment: as above; details: 72 h
# Method in brief: as §1
# MCF-7 [10] = experiment: as above; details: 72 h
# Method in brief: as §1
# MCF-7 Tam1 [11] = experiment: as above; details: 4-OH-tamoxifen in medium 1 µM; 72 h
# Method in brief: as §1
# BT-474 Tam1 [12] = experiment: relative IC50 (midpoint of fitted logistic curve, plateau may be below 50% inhibition; CellTiter-Glo viability); higher = less potent; details: 4-OH-tamoxifen in medium 1 µM; 72 h
# Method in brief: as §1
# T-47D Tam2 [13] = experiment: as above; details: 4-OH-tamoxifen in medium 1 µM; 72 h
# Method in brief: as §1
# BT-474 Tam2 [14] = experiment: as above; details: 4-OH-tamoxifen in medium 1 µM; 72 h
# Method in brief: as §1
# ZR-75-1 [15] = experiment: as above; details: 72 h
# Method in brief: as §1
# BT-474 [16] = experiment: as above; details: 72 h
# Method in brief: as §1
# T-47D Tam1 [17] = experiment: as above; details: 4-OH-tamoxifen in medium 1 µM; 72 h
# Method in brief: as §1
# T-47D [18] = experiment: as above; details: 72 h
# Method in brief: as §1
# MCF-7 [19] = experiment: as above; details: 72 h
# Method in brief: as §1
# MCF-7 Tam1 [20] = experiment: as above; details: 4-OH-tamoxifen in medium 1 µM; 72 h
# Method in brief: as §1
# ZR-75-1 Tam1 [21] = experiment: as above; details: 4-OH-tamoxifen in medium 1 µM; 72 h
# Method in brief: as §1
# ZR-75-1 Tam2 [22] = experiment: as above; details: 4-OH-tamoxifen in medium 1 µM; 72 h
# Method in brief: as §1
relative IC50 (BT-474 Tam1 [12]) [µM],relative IC50 (T-47D Tam2 [13]) [µM],relative IC50 (BT-474 Tam2 [14]) [µM],relative IC50 (BT-474 [16]; 4-OH-tamoxifen in medium 1 µM) [µM],relative IC50 (T-47D Tam1 [17]) [µM],relative IC50 (T-47D [18]; 4-OH-tamoxifen in medium 1 µM) [µM],relative IC50 (MCF-7 [19]; 4-OH-tamoxifen in medium 0 µM) [µM],relative IC50 (MCF-7 [19]; 4-OH-tamoxifen in medium 1 µM) [µM],relative IC50 (MCF-7 Tam1 [20]) [µM],relative IC50 (BT-474 [16]; 4-OH-tamoxifen in medium 0 µM) [µM],relative IC50 (T-47D [18]; 4-OH-tamoxifen in medium 0 µM) [µM],Compound,drug sensitivity score (BT-474 Tam1 [1]),drug sensitivity score (ZR-75-1 Tam1 [2]),drug sensitivity score (T-47D Tam2 [3]),drug sensitivity score (BT-474 Tam2 [4]),drug sensitivity score (ZR-75-1 [5]; 4-OH-tamoxifen in medium 0 µM),drug sensitivity score (ZR-75-1 [5]; 4-OH-tamoxifen in medium 1 µM),drug sensitivity score (BT-474 [6]; 4-OH-tamoxifen in medium 0 µM),drug sensitivity score (BT-474 [6]; 4-OH-tamoxifen in medium 1 µM),drug sensitivity score (ZR-75-1 Tam2 [7]),drug sensitivity score (T-47D Tam1 [8]),drug sensitivity score (T-47D [9]; 4-OH-tamoxifen in medium 0 µM),drug sensitivity score (T-47D [9]; 4-OH-tamoxifen in medium 1 µM),drug sensitivity score (MCF-7 [10]; 4-OH-tamoxifen in medium 0 µM),drug sensitivity score (MCF-7 [10]; 4-OH-tamoxifen in medium 1 µM),drug sensitivity score (MCF-7 Tam1 [11]),relative IC50 (ZR-75-1 [15]; 4-OH-tamoxifen in medium 0 µM) [µM],relative IC50 (ZR-75-1 [15]; 4-OH-tamoxifen in medium 1 µM) [µM],relative IC50 (ZR-75-1 Tam1 [21]) [µM],relative IC50 (ZR-75-1 Tam2 [22]) [µM]
1.59,3.36,3.57,3.35,2.88,3.9,2.87,3.34,3.94,,,CC/C(=C(\c1ccc(O)cc1)c1ccc(OCCN(C)C)cc1)c1ccccc1 [4-hydroxytamoxifen],9.04,0.263,4.19,4.79,0,1.5,0.905,5.15,1.3,2.07,0.306,2.56,3.05,4.41,1.87,> 10,3.2,,
> 1,> 1,> 1,> 1,,> 1,,> 1,> 1,> 1,> 1,Cc1cc(Nc2nc(N[C@@H](C)c3ncc(F)cn3)ncc2Cl)[nH]n1 [AZD1480],0,0,0,0,0,0,0,0,0,2.6,0,0,0.0046,0,0,> 1,> 1,> 1,> 1
> 10,> 10,> 10,> 10,> 10,> 10,> 10,> 10,> 10,> 10,> 10,CCCCCOC(=O)Nc1nc(=O)n([C@@H]2O[C@H](C)[C@@H](O)[C@H]2O)cc1F [Capecitabine],0,0.129,0,0,1.86,0,0,0,0.0192,0,0,0,0,0,0,,> 10,,
> 10,> 10,> 10,> 10,0.58,> 10,0.435,,> 10,> 10,1.94,Nc1ccn([C@@H]2O[C@H](CO)[C@@H](O)[C@@H]2O)c(=O)n1 [Cytarabine],0,1.96,0,0,3.25,0.265,0,0,2.46,4.13,2.75,0,4.84,1.56,0,1.5,,,
,> 10,> 10,,0.667,,> 10,,> 10,> 10,0.605,COc1cc([C@@H]2c3cc4c(cc3[C@@H](O[C@@H]3O[C@@H]5CO[C@@H](C)O[C@H]5[C@H](O)[C@H]3O)[C@H]3COC(=O)[C@H]23)OCO4)cc(OC)c1O [Etoposide],0.0698,1.42,0,0,3.42,0.761,0,1.71,1.13,5.76,6.74,0.625,0,0.239,0,0.612,,,
> 10,> 10,> 10,> 10,,> 10,> 10,,> 10,> 10,> 10,Nc1nc(F)nc2c1ncn2[C@@H]1O[C@H](CO)[C@@H](O)[C@@H]1O [Fludarabine],0,0,0,0,0,0,0,0,0,2.13,0,0,0,1.23,0,> 10,> 10,> 10,> 10
> 1,> 1,> 1,> 1,,0.045,0.00643,,> 1,> 1,> 1,C[C@]12CC[C@@H]3c4ccc(O)cc4C[C@@H](CCCCCCCCC[S+]([O-])CCCC(F)(F)C(F)(F)F)[C@H]3[C@@H]1CC[C@@H]2O (some centres undefined) [Fulvestrant],0,0,0,0,0,0,0,0,0,0.0366,0,5.21,7.84,0.235,0,> 1,> 1,> 1,> 1
> 10,> 10,> 10,> 10,,,> 10,> 10,> 10,> 10,> 10,N#Cc1ccc(C(c2ccc(C#N)cc2)n2cncn2)cc1 [Letrozole],0,0,0,0,0,0,0,0,0,2.88,0,11.1,0,0,0,> 10,> 10,> 10,> 10
,2.71,1.62,,0.492,,2.53,1.89,> 10,1.1,,COc1ccccc1S(=O)(=O)Nc1ccc2c(c1)CN(C)C(=O)N2 [PFI-1],0.704,1.48,1.76,2.35,0.0459,1.01,2.69,0.561,1.77,4.01,0.887,0.0577,2.8,2.92,0,,,,
> 10,> 10,> 10,> 10,> 10,> 10,> 10,,> 10,> 10,> 10,C=CCN(/C=C1/C(=O)O[C@H](COC)[C@@]2(C)C1=C(O)C(=O)C1=C2[C@H](OC(C)=O)C[C@]2(C)C(=O)CC[C@@H]12)CC=C [Sonolisib (PX-866)],0,0.103,0,0,0,0.361,0,0,0.0742,0,0,0,0,0,0,> 10,,,
> 10,> 10,> 10,> 10,,> 10,> 10,> 10,> 10,> 10,> 10,COc1cc(Nc2ncc(F)c(Nc3ccc4c(n3)NC(=O)C(C)(C)O4)n2)cc(OC)c1OC [Tamatinib (R406)],0,0,0,0,0,0,0,0,0,0.592,0,0,0,0,0,> 10,> 10,> 10,> 10
3.41,3.46,3.02,3.52,1.86,> 10,,3.69,4.15,,> 10,CN(C)CCOc1ccc(/C(=C(/CCCl)c2ccccc2)c2ccccc2)cc1 [Toremifene (citrate)],4.96,0.357,3.09,5.77,0,0.599,0.652,4.16,0.814,3.53,0,0,0.353,3.26,1.2,> 10,,,
0.249,0.583,0.442,0.0843,0.687,1.73,0.202,0.141,> 10,0.0429,,CCC1=C[C@@H]2CN(C1)Cc1c([nH]c3ccccc13)[C@@](C(=O)OC)(c1cc3c(cc1OC)N(C)[C@H]1[C@@](O)(C(=O)OC)[C@H](OC(C)=O)[C@]4(CC)C=CCN5CC[C@]31[C@@H]54)C2 [Vinorelbine (tartrate)],17.2,1.16,8.26,14.3,9.06,3.16,13.8,23,2.36,7.24,6.22,2.28,9.78,12.3,0,0.0433,1.54,,

Compound,relative IC50 (BT-474 Tam1 [12]) [µM],relative IC50 (T-47D Tam2 [13]) [µM],relative IC50 (BT-474 Tam2 [14]) [µM],relative IC50 (BT-474 [16]; 4-OH-tamoxifen in medium 1 µM) [µM],relative IC50 (T-47D Tam1 [17]) [µM],relative IC50 (T-47D [18]; 4-OH-tamoxifen in medium 1 µM) [µM],relative IC50 (MCF-7 [19]; 4-OH-tamoxifen in medium 0 µM) [µM],relative IC50 (MCF-7 [19]; 4-OH-tamoxifen in medium 1 µM) [µM],relative IC50 (MCF-7 Tam1 [20]) [µM],relative IC50 (BT-474 [16]; 4-OH-tamoxifen in medium 0 µM) [µM],relative IC50 (T-47D [18]; 4-OH-tamoxifen in medium 0 µM) [µM],drug sensitivity score (BT-474 Tam1 [1]),drug sensitivity score (ZR-75-1 Tam1 [2]),drug sensitivity score (T-47D Tam2 [3]),drug sensitivity score (BT-474 Tam2 [4]),drug sensitivity score (ZR-75-1 [5]; 4-OH-tamoxifen in medium 0 µM),drug sensitivity score (ZR-75-1 [5]; 4-OH-tamoxifen in medium 1 µM),drug sensitivity score (BT-474 [6]; 4-OH-tamoxifen in medium 0 µM),drug sensitivity score (BT-474 [6]; 4-OH-tamoxifen in medium 1 µM),drug sensitivity score (ZR-75-1 Tam2 [7]),drug sensitivity score (T-47D Tam1 [8]),drug sensitivity score (T-47D [9]; 4-OH-tamoxifen in medium 0 µM),drug sensitivity score (T-47D [9]; 4-OH-tamoxifen in medium 1 µM),drug sensitivity score (MCF-7 [10]; 4-OH-tamoxifen in medium 0 µM),drug sensitivity score (MCF-7 [10]; 4-OH-tamoxifen in medium 1 µM),drug sensitivity score (MCF-7 Tam1 [11]),relative IC50 (ZR-75-1 [15]; 4-OH-tamoxifen in medium 0 µM) [µM],relative IC50 (ZR-75-1 [15]; 4-OH-tamoxifen in medium 1 µM) [µM],relative IC50 (ZR-75-1 Tam1 [21]) [µM],relative IC50 (ZR-75-1 Tam2 [22]) [µM]
CCC1(c2ccc(N)cc2)CCC(=O)NC1=O (centres undefined) [Aminoglutethimide],> 10,> 10,> 10,,,,> 10,,> 10,> 10,> 10,0,0,0,0,0,0,0,0.6,0,0,0,0.781,0,5.49,0,,> 10,> 10,> 10
C/C(=C\c1csc(C)n1)[C@@H]1C[C@@H]2O[C@]2(C)CCC[C@H](C)[C@H](O)[C@@H](C)C(=O)C(C)(C)[C@@H](O)CC(=O)O1 [Patupilone  (Epothilone B)],0.0118,0.0147,0.0297,0.00598,,0.242,,,> 1,0.0201,0.00951,8.19,0,6.29,5.53,4.4,0,9.82,14.9,0,4.63,8.94,1.35,7.85,4.38,0,,> 1,> 1,> 1
